Molecules are shown by their SMILES. Activity calls are given as the source filed them. The calls are words filed in the database; no cut-off is given here.

What is called IC50 is the concentration needed to halve the response being measured. By EC50 is commonly meant the concentration at which the effect is half-maximal.

Common to all, as to assay type: cell-based
For experiment [1], the target named is T1, Transient receptor potential cation channel subfamily A member 1 (Rattus norvegicus, UniProt Q6RI86). The experiment can be described thus: Antagonist activity at rat TRPA1 transfected in HEK293 cells assessed as desensitization by measuring inhibition of AITC induced increase in intracellular Ca2+ concentration preincubated for 5 mins followed by AITC stimulation by Fluo4-AM dye based assay.
T1 sequence (Q6RI86 whole entry): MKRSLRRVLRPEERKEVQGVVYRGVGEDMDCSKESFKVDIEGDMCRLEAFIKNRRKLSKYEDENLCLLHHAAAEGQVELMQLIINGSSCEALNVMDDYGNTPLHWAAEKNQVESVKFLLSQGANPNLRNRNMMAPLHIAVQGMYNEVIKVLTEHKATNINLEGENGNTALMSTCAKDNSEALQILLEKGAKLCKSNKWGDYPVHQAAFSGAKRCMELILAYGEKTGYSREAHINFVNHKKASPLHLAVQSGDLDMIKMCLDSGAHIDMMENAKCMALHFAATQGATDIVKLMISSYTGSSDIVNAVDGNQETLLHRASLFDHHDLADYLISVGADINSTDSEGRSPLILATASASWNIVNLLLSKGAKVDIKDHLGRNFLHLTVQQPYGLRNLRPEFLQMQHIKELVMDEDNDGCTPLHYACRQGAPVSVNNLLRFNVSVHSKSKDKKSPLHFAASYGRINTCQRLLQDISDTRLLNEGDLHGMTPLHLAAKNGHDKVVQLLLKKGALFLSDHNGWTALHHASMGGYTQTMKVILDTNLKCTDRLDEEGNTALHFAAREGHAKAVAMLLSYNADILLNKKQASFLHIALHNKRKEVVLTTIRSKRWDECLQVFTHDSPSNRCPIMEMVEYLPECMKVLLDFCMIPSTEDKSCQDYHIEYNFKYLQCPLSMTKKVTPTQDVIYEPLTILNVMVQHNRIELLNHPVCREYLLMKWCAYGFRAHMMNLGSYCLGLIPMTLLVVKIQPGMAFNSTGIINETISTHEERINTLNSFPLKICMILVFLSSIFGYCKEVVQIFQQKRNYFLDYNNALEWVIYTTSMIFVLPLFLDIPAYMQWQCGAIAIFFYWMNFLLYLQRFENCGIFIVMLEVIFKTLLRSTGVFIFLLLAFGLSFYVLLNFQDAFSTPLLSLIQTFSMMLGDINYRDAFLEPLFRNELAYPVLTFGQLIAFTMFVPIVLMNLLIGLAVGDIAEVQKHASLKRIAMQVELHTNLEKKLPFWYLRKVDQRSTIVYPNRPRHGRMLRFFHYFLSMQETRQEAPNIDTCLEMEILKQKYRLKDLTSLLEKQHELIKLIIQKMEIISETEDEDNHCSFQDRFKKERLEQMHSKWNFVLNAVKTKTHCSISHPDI

Experiment [2] addresses Transient receptor potential cation channel subfamily A member 1 (Rattus norvegicus) (UniProt Q6RI86). The experiment in a line: Agonist activity at rat TRPA1 transfected in HEK293 cells assessed as increase in intracellular Ca2+ concentration by measuring efficacy by Fluo4-AM dye based assay relative to AITC.
In experiment [3] the target is Transient receptor potential cation channel subfamily M member 8 (Rattus norvegicus, UniProt Q8R455). The experiment in a line: Antagonist activity at rat TRPM8 transfected in HEK293 cells assessed as inhibition of icilin induced increase in intracellular Ca2+ concentration preincubated for 5 mins followed by icilin stimulation by Fluo4-AM dye based assay.
Transient receptor potential cation channel subfamily M member 8, sequence (Q8R455 whole entry): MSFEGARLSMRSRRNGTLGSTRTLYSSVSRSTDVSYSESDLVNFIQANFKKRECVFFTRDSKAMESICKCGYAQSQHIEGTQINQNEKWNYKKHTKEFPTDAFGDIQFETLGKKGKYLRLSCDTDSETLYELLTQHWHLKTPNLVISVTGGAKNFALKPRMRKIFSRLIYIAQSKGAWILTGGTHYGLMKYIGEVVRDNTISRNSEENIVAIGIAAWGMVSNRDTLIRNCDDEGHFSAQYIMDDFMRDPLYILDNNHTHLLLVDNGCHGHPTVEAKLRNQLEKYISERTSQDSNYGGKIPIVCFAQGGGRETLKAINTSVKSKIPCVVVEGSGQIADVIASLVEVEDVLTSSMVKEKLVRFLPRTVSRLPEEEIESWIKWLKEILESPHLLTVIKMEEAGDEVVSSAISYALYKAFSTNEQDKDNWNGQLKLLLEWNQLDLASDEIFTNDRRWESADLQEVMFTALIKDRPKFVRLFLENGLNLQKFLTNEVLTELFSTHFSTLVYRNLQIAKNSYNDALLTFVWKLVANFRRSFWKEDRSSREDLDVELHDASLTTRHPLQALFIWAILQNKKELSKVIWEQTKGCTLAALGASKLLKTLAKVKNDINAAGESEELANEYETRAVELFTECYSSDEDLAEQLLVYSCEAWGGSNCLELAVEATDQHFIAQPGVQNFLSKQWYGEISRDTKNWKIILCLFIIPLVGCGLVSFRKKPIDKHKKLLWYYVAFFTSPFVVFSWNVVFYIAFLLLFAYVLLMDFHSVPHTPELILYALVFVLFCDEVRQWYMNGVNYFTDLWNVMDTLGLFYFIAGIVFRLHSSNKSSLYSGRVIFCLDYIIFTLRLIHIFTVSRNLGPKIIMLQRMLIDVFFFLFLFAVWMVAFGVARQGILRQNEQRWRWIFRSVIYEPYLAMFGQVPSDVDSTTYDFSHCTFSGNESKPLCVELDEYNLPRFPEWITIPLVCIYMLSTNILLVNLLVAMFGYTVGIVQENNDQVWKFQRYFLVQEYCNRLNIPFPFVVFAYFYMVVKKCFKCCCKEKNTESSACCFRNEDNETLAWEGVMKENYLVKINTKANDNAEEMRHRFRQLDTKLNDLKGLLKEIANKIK
Experiment [4] has as its target T1, Transient receptor potential cation channel subfamily A member 1. The experiment in a line: Agonist activity at rat TRPA1 transfected in HEK293 cells assessed as increase in intracellular Ca2+ concentration by Fluo4-AM dye based assay.
For experiment [5], the target named is Transient receptor potential cation channel subfamily V member 1 (Homo sapiens) (UniProt Q8NER1). The experiment can be described thus: Modulation of human TRPV1 transfected in HEK293 cells.
Transient receptor potential cation channel subfamily V member 1 (Homo sapiens), sequence (Q8NER1 whole entry): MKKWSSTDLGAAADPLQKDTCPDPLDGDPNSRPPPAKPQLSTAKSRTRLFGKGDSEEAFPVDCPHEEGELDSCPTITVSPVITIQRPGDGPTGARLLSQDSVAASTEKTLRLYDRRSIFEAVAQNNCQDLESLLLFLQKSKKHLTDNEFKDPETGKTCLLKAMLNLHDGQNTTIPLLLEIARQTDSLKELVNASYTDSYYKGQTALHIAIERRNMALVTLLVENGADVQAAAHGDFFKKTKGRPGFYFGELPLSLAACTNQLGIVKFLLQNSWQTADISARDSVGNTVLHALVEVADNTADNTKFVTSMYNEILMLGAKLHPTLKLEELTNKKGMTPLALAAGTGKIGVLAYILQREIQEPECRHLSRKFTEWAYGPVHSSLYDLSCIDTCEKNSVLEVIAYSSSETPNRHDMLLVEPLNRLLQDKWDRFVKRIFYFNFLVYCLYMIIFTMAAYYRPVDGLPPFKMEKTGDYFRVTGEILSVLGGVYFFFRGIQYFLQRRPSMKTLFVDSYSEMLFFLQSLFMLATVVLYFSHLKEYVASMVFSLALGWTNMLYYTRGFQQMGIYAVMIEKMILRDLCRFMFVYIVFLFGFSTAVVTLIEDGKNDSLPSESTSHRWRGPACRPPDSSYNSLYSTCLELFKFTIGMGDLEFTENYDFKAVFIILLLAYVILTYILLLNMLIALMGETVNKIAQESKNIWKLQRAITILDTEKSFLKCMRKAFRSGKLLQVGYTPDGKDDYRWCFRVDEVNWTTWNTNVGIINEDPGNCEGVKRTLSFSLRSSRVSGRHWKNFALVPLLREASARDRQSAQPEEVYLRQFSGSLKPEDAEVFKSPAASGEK

Transient receptor potential cation channel subfamily A member 1 (Rattus norvegicus), sequence (Q6RI86 whole entry): as the sequence (Q6RI86 whole entry) above

As for `C=C(C)[C@H](CCC(C)=O)[C@@H]1c2c(cc(CCCCC)c(C(=O)O)c2O)O[C@H]1O`, the IC50 in experiment [1] came to 17.9 µM; in experiment [3], 23.9 µM. Also, the Efficacy in experiment [2] (filed as agonist) came to 91.5%. The EC50 in experiment [4] was determined as 6.6 µM.
For `CCCCCc1cc(O)c(C/C=C(\C)CCC(O)C(C)(C)O)c(O)c1C(=O)O` (stereo not drawn) the same measures were 25.1 µM, 17.3 µM, 84.1% and 10.3 µM.
For the compound `C=C(C)[C@@H](O)CC/C(C)=C/Cc1c(O)cc(CCCCC)c(C(=O)O)c1O`, the figures for the IC50 in experiment [1] and in experiment [3] were above 50 µM and 33 µM, respectively. Further, the Efficacy in experiment [2] is 31%. In experiment [4], the EC50 amounted to 15 µM.
For the compound `C=C(C)[C@H](O)CC/C(C)=C/Cc1c(O)cc(CCCCC)c(C(=O)O)c1O`, the IC50 in experiment [1] is above 50 µM; in experiment [3], 5.2 µM. In experiment [2] (filed as agonist), the Efficacy was determined as 68.5%. Further, the EC50 in experiment [4] was determined as 8.5 µM.
On to `CCCCCc1cc(O)c(C/C=C(\C)CCC=C(C)C)c(O)c1C(=O)O` [CANNABIGEROLIC ACID], for which the figures for the IC50 in experiment [1] and in experiment [3] were 7.14 µM and 1.31 µM, respectively. Besides, the Efficacy in experiment [2] (filed as agonist) was 183%. The EC50 in experiment [4] is 8.4 µM.
On the same counts, the results for `C=C(C)C(O)CC/C(C)=C/Cc1c(O)cc(CCCCC)c(C(=O)O)c1O` (stereo not drawn) are 37.3 µM, 10.4 µM, 96.1% and 12.1 µM.
`C=C(C)C(O)CC/C(C)=C/Cc1c(O)cc(CCCCC)cc1O` (racemic): the IC50 in experiment [1] turned out to be 7.9 µM; in experiment [3], 0.8 µM. In addition, in experiment [2] (filed as agonist), the Efficacy was found to be 75.3%. The result in experiment [5] was inactive. In addition, in experiment [4], the concentration giving a half-maximal response (EC50) amounted to 1 µM.
On the same counts, the results for `CCCCCC1=CC(=O)C(C/C=C(\C)CCC=C(C)C)=C(O)C1=O` are 8.4 µM, 3 µM, 134%, “inactive” and 7.8 µM.
For `C=C(C)C(O)CC/C(C)=C\Cc1c(O)cc(CCCCC)c(C(=O)O)c1O` (stereo not drawn) the same measures were 13.9 µM, 4 µM, 100%, “inactive” and 6.9 µM.
As for `CCCCCc1cc(O)c(C/C=C(\C)CCC(=O)O)c(O)c1C(=O)O`, the results for the IC50 in experiment [1] and in experiment [3] were above 50 µM and 29.5 µM, respectively. Further, the Efficacy in experiment [2] (filed as agonist) was 40.4%. The half-maximal effective concentration (EC50) in experiment [4] was found to be 28.3 µM.
For `C=C(C)[C@H](CCC(C)=O)[C@@H]1c2c(cc(CCCCC)c(C(=O)O)c2O)O[C@@H]1O` the same measures were 19.2 µM, 8 µM, 85.7% and 8.8 µM.
With `CCCCCc1cc(O)c(C/C=C(\C)CCC=C(C)C)c(O)c1`, in experiment [2] (filed as agonist), the Efficacy is 99.9%.

The values are drawn from ChEMBL document CHEMBL5385925, “Phytochemical Characterization and TRPA1/TRPM8 Modulation Profile of the Cannabigerol-Rich Cannabis sativa L. Chemotype IV” (J Nat Prod, 2024).
